Species on record: Rattus norvegicus
Test: Open TG-GATES - Regimen: Single
Format: toxicity, organism-based, Sprague-Dawley
Parameters: regimen Single, gender Male, age 6 weeks
Details: in vivo, po, 20 mg/kg, route gavage, dose level Middle; for APTT / Bas / Eos / Fbg / Hb / Ht / Lym / MCH / MCHC / MCV / Mono / Neu / PT / Plat / RBC / Ret / WBC: tissue Blood; for KIDNEY_L / KIDNEY_R / KIDNEY_TOTAL: tissue Kidney; for LIVER: tissue Liver; for A/G / ALP / ALT / AST / BUN / CRE / Ca / Cl / DBIL / GLC / IP / K / LDH / Na / PL / RALB / TBIL / TC / TG / TP / gamma-GTP: tissue Plasma

Structure (SMILES): CC(C)NNC(=O)c1ccncc1 [IPRONIAZID]
- TERMINAL_BW (3 h): 203.6 g
- APTT (3 h): 21.7 s
- Bas (3 h): 0%
- Eos (3 h): 1%
- Fbg (3 h): 321.4 mg/dL
- Hb (3 h): 12.8 g/dL
- Ht (3 h): 37.7%
- Lym (3 h): 78.8%
- MCH (3 h): 21.6 pg
- MCHC (3 h): 34.1%
- MCV (3 h): 63.4 fL
- Mono (3 h): 2%
- Neu (3 h): 17.8%
- PT (3 h): 16.3 s
- Plat (3 h): 114.7 x10_4/uL
- RBC (3 h): 594.6 x10_4/ul
- Ret (3 h): 8.2%
- WBC (3 h): 62.7 x10_2/uL
- KIDNEY_L (3 h): 1 g
- KIDNEY_R (3 h): 1 g
- KIDNEY_TOTAL (3 h): 1.9 g
- LIVER (3 h): 9.6 g
- A/G (3 h): 1.3
- ALP (3 h): 1741.8 IU/L
- ALT (3 h): 35.4 IU/L
- AST (3 h): 73.2 IU/L
- BUN (3 h): 12.4 mg/dL
- CRE (3 h): 0.2 mg/dL
- Ca (3 h): 10.7 mg/dL
- Cl (3 h): 107.2 meq/L
- DBIL (3 h): 0.006 mg/dL
- GLC (3 h): 182.8 mg/dL
- IP (3 h): 8.8 mg/dL
- K (3 h): 4 meq/L
- LDH (3 h): 229.4 IU/L
- Na (3 h): 142 meq/L
- PL (3 h): 143.6 mg/dL
- RALB (3 h): 3.2 g/dL
- TBIL (3 h): 0.01 mg/dL
- TC (3 h): 78.8 mg/dL
- TG (3 h): 58.8 mg/dL
- TP (3 h): 5.7 g/dL
- gamma-GTP (3 h): 1.2 IU/L
- TERMINAL_BW (6 h): 213.3 g
- APTT (6 h): 23.3 s
- Bas (6 h): 0%
- Eos (6 h): 0.6%
- Fbg (6 h): 324.6 mg/dL
- Hb (6 h): 13.2 g/dL
- Ht (6 h): 38.9%
- Lym (6 h): 72.6%
- MCH (6 h): 21.5 pg
- MCHC (6 h): 34.1%
- MCV (6 h): 63.1 fL
- Mono (6 h): 2.6%
- Neu (6 h): 23.6%
- PT (6 h): 15.6 s
- Plat (6 h): 118.4 x10_4/uL
- RBC (6 h): 615.8 x10_4/ul
- Ret (6 h): 8%
- WBC (6 h): 79 x10_2/uL
- KIDNEY_L (6 h): 1 g
- KIDNEY_R (6 h): 1 g
- KIDNEY_TOTAL (6 h): 1.9 g
- LIVER (6 h): 9.4 g
- A/G (6 h): 1.2
- ALP (6 h): 1382.2 IU/L
- ALT (6 h): 34.4 IU/L
- AST (6 h): 72.8 IU/L
- BUN (6 h): 10.4 mg/dL
- CRE (6 h): 0.1 mg/dL
- Ca (6 h): 10.6 mg/dL
- Cl (6 h): 107 meq/L
- DBIL (6 h): 0.002 mg/dL
- GLC (6 h): 178.8 mg/dL
- IP (6 h): 10.3 mg/dL
- K (6 h): 4.3 meq/L
- LDH (6 h): 212.6 IU/L
- Na (6 h): 142 meq/L
- PL (6 h): 154.6 mg/dL
- RALB (6 h): 2.9 g/dL
- TBIL (6 h): 0.008 mg/dL
- TC (6 h): 86.4 mg/dL
- TG (6 h): 68.2 mg/dL
- TP (6 h): 5.4 g/dL
- gamma-GTP (6 h): 1.2 IU/L
- TERMINAL_BW (9 h): 207.6 g
- APTT (9 h): 22.8 s
- Bas (9 h): 0%
- Eos (9 h): 1%
- Fbg (9 h): 306.4 mg/dL
- Hb (9 h): 13.1 g/dL
- Ht (9 h): 37.8%
- Lym (9 h): 76.4%
- MCH (9 h): 21.4 pg
- MCHC (9 h): 34.6%
- MCV (9 h): 61.8 fL
- Mono (9 h): 2.6%
- Neu (9 h): 19.4%
- PT (9 h): 15.5 s
- Plat (9 h): 116.3 x10_4/uL
- RBC (9 h): 612.4 x10_4/ul
- Ret (9 h): 7.7%
- WBC (9 h): 87.5 x10_2/uL
- KIDNEY_L (9 h): 1 g
- KIDNEY_R (9 h): 1 g
- KIDNEY_TOTAL (9 h): 2 g
- LIVER (9 h): 8.6 g
- A/G (9 h): 1.3
- ALP (9 h): 1268.2 IU/L
- ALT (9 h): 35 IU/L
- AST (9 h): 70.2 IU/L
- BUN (9 h): 8.4 mg/dL
- CRE (9 h): 0.2 mg/dL
- Ca (9 h): 10.6 mg/dL
- Cl (9 h): 106.6 meq/L
- DBIL (9 h): 0.01 mg/dL
- GLC (9 h): 176.2 mg/dL
- IP (9 h): 10.2 mg/dL
- K (9 h): 4.2 meq/L
- LDH (9 h): 171 IU/L
- Na (9 h): 141.4 meq/L
- PL (9 h): 130.4 mg/dL
- RALB (9 h): 3 g/dL
- TBIL (9 h): 0.02 mg/dL
- TC (9 h): 79.2 mg/dL
- TG (9 h): 35.8 mg/dL
- TP (9 h): 5.4 g/dL
- gamma-GTP (9 h): 1 IU/L
- TERMINAL_BW (24 h): 213.8 g
- APTT (24 h): 21.6 s
- Bas (24 h): 0%
- Eos (24 h): 0.6%
- Fbg (24 h): 318.8 mg/dL
- Hb (24 h): 12.9 g/dL
- Ht (24 h): 37.7%
- Lym (24 h): 76.8%
- MCH (24 h): 20.9 pg
- MCHC (24 h): 34.2%
- MCV (24 h): 60.9 fL
- Mono (24 h): 2%
- Neu (24 h): 19.6%
- PT (24 h): 15.9 s
- Plat (24 h): 125.4 x10_4/uL
- RBC (24 h): 618.2 x10_4/ul
- Ret (24 h): 7.7%
- WBC (24 h): 81.3 x10_2/uL
- KIDNEY_L (24 h): 1 g
- KIDNEY_R (24 h): 1 g
- KIDNEY_TOTAL (24 h): 1.9 g
- LIVER (24 h): 10.1 g
- A/G (24 h): 1.2
- ALP (24 h): 1498.8 IU/L
- ALT (24 h): 38.2 IU/L
- AST (24 h): 73 IU/L
- BUN (24 h): 17.8 mg/dL
- CRE (24 h): 0.2 mg/dL
- Ca (24 h): 10.9 mg/dL
- Cl (24 h): 105.4 meq/L
- DBIL (24 h): 0.006 mg/dL
- GLC (24 h): 177.6 mg/dL
- IP (24 h): 8 mg/dL
- K (24 h): 4.5 meq/L
- LDH (24 h): 275.4 IU/L
- Na (24 h): 141.6 meq/L
- PL (24 h): 134.8 mg/dL
- RALB (24 h): 3 g/dL
- TBIL (24 h): 0.006 mg/dL
- TC (24 h): 73 mg/dL
- TG (24 h): 85.6 mg/dL
- TP (24 h): 5.5 g/dL
- gamma-GTP (24 h): 1.6 IU/L

From ChEMBL document CHEMBL3885861, “Open TG-GATES”
